These results are taken from PubChem BioAssay AID720588 (Broad Institute, 2013).

In this experiment the test system is HEK293T viability, CellTiter-Glo ATP luminescence, 72 h. Description: HEK293T cell cytotoxicity, dose response, cytotoxicity control, CellTiter-Glo luminescence, cherry-pick, set 3 (AID 720588).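 Note: potency for luminescence loss meaning cytotoxic compounds.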
Consider `C[C@@H]1O[C@@H](O[C@@H]2C=C3CCC4C(CC[C@]5(C)[C@@H](c6ccc(=O)oc6)CC[C@]45O)[C@@]3(C)CC2)[C@H](O)[C@H](O)[C@H]1O` (some centres not stated), for which the AC35 was 0.0201 µM. Then `COc1cccc(-c2cc(NC=O)c3ncc(-c4ccc(C(C)=O)cc4)n3c2)c1`, with 8.98 µM. In the case of `Cc1cccc(/C=N/Nc2ccc3ccccc3n2)c1`, the AC35 is 11.2 µM. Take `Cc1ccc(/C=N/Nc2ccnc3cc(Cl)ccc23)c(C)c1`: the AC35 is 10.6 µM.

As to `Cc1ccccc1S(=O)(=O)N1CC[C@@H]2[C@@H](CO)Nc3ccc(-c4ccc(C#N)cc4)cc3[C@@H]21`, the AC35 is 14.8 µM. Take `CC(C)N1C/C(=C/c2cccnc2)C(=O)/C(=C/c2cccnc2)C1`: the AC35 was 18.7 µM.

`C[C@@H]1CN([C@@H](C)CO)S(=O)(=O)c2ccc(C#CC(C)(C)O)cc2O[C@H]1CN(C)Cc1ccc(-c2ccccc2)cc1`: the AC35 is 6.7 µM. Then `CC12CCC(O)CC1CCC1C2CCC2(C)C(C3=CC(=O)OC3)CCC12O` (configuration not stated), with 0.375 µM; and `Nc1ccc(Oc2cccc(Oc3ccc(N)cc3)c2)cc1`, with 6.82 µM; and `CC(=O)OC1CC(OC2C(O)CC(OC3C(O)CC(OC4CCC5(C)C(CCC6C5CCC5(C)C(C7=CC(=O)OC7)C(O)CC65O)C4)OC3C)OC2C)OC(C)C1OC1OC(CO)C(O)C(O)C1O` (configuration not stated), with 0.58 µM.

As for `C[C@]12CC[C@H]3[C@@H](CC[C@]4(O)C[C@@H](O)CC[C@]34C=O)[C@@]1(O)CC[C@@H]2C1=CC(=O)OC1`, the AC35 is 0.774 µM. On to `C[C@@H]1CN([C@H](C)CO)C(=O)Cc2cc(NC(=O)CCCCCC(=O)Nc3ccccc3N)ccc2O[C@@H]1CN(C)CC1CCCCC1`, for which the AC35 was 20.1 µM. Turning to `COC(=O)C[C@H]1CC[C@@H]2[C@H](COc3ccc(NC(=O)Nc4cccc(Cl)c4)cc3C(=O)N2C)O1`, the AC35 is 17.8 µM.

In the case of `N#C[C@H]1[C@H](c2ccc(C#Cc3ccccc3F)cc2)[C@@H](CO)N1C(=O)C1CCCCC1`, the AC35 is 13.2 µM. `COC1C(C)OC(OC2CC(C)(O)Cc3cc4c(c(O)c32)C(=O)c2c(O)cc3c(c2C4=O)OC2OC3(C)C(O)C(N(C)C)C2O)C(OC)C1(C)OC` (configuration not stated): the AC35 was 0.128 µM.

`COc1ccc([Si](C)(C)[C@H]2[C@H](CCO)O[C@@]3(C(=O)N(c4ccccc4)c4ccccc43)[C@@H]2C)cc1`: the AC35 was 15 µM. In the case of `CCc1cccc2c(C(=O)CN3C(=O)NC4(CCCCC4)C3=O)c[nH]c12`, the AC35 was 11.6 µM. `COC1C(O)C(C)OC(OC2CCC3(C)C(CCC4C3C(O)CC3(C)C(C5=CC(=O)OC5)CCC43O)C2)C1O` (configuration not stated): the AC35 was 0.244 µM. Turning to `COc1ccc(S(=O)(=O)Nc2ccc3c(c2)C(=O)N([C@H](C)CO)C[C@@H](C)[C@@H](CN(C)CC2CCCCC2)OCCCC[C@H](C)O3)cc1`, the AC35 is 14.1 µM.

On to `CNC[C@H](CC1CCCCC1)NC[C@H](CO)NCCc1cccc(C(F)(F)F)c1`, for which the AC35 was 10.8 µM. In the case of `O=C1c2ccccc2C(=O)c2cc(N3CCCCC3)ccc21`, the AC35 was 6.31 µM. Then `CN(CCO)c1ccc(/C=N/Nc2nncc3ccccc23)cc1`, with 13 µM.

For `C[C@@H]1CCCCO[C@H](CN(C)Cc2ccc(C(=O)Nc3ccccc3N)cc2)[C@@H](C)CN([C@H](C)CO)C(=O)c2cc(NS(=O)(=O)c3ccc(Cl)cc3)ccc2O1`, the AC35 was 17.3 µM.

With `Nc1nc(=S)c2[nH]cnc2[nH]1`, the AC35 was 5.79 µM.

For `COc1ccc(S(=O)(=O)Nc2ccc3c(c2)C(=O)N([C@H](C)CO)C[C@@H](C)[C@@H](CN(C)Cc2ccc(C(=O)Nc4ccccc4N)cc2)O3)cc1`, the AC35 was 15 µM.

For the molecule `CCCCCCCCn1c2c(c(=N)c3c1CCC3)CCCC2`, the AC35 is 3.51 µM. `N#C[C@@H]1[C@H](c2ccc(C#Cc3ccc(F)cc3)cc2)[C@@H](CO)N1C(=O)Nc1ccc(F)cc1`: the AC35 was 12.6 µM.

Take `CCCCCCCCNC(C)C(O)c1ccc(SC(C)C)cc1` (configuration not stated): the AC35 is 12.2 µM. Consider `O=C(c1nnsc1S(=O)c1ccc(Cl)cc1)N1CCOCC1` (configuration not stated), for which the AC35 is 5.6 µM.

For `C=C(C(=O)c1ccccc1)C(C)C(=C)C(=O)c1ccccc1`, the AC35 is 5.24 µM. Turning to `c1ccc(Nc2nnc(-c3ccc4c(c3)OCO4)o2)cc1`, the AC35 was 3.33 µM. As to `COc1ccc(Cn2cc3c(-c4ccc(F)cc4)nnc-3c3cc(OC)c(OC)cc32)cc1`, the AC35 is 10.2 µM. On to `O=C1NC(=S)NC(=O)C1=Cc1cccn1-c1ccc(O)cc1`, for which the AC35 is 19.5 µM. Under `CC(C)(C)c1ccc(/C=N/Nc2ccc(C(=O)O)cc2)cc1` stands 16.5 µM. As to `O=C1Nc2ccccc2C1=Nc1ccc(Br)cc1`, the AC35 was 14.1 µM.

For the molecule `O=C(NC1CCCC1)N1CCCCN2[C@@H](CO)[C@@H](c3ccc(/C=C/c4ccccc4)cc3)[C@@H]2C1`, the AC35 is 9.42 µM. Turning to `C[C@@H]1O[C@@H](O[C@H]2C[C@@H](O)[C@]3(CO)[C@@H]4C(CC[C@]3(O)C2)[C@@]2(O)CC[C@H](C3COC(=O)C3)[C@@]2(C)C[C@H]4O)[C@H](O)[C@H](O)[C@H]1O` (some centres not stated), the AC35 is 2.43 µM. With `S=c1[nH]nc(-c2cc(-c3ccccc3)n[nH]2)n1/N=C/C(Br)=C/c1ccccc1`, the AC35 is 12.4 µM. `CC1=NN(c2ccc(C)cc2)C(=O)/C1=C\C=C\c1ccccc1`: the AC35 is 14.3 µM. Under `COc1cccc(-c2cccc(-c3nc(C(=O)NCC(F)(F)F)cc4c3[C@H](CCO)N([S@@](=O)C(C)(C)C)C4)c2)c1` stands 23.5 µM. Take `CCCCCCCCCCCCCCCCCCNc1ccn(C2OC(COP(=O)(O)OCC3OC(n4cc(F)c(=O)[nH]c4=O)CC3O)C(O)C2O)c(=O)n1` (configuration not stated): the AC35 is 6.6 µM. For `COC(=O)C1=C(C)N(Cc2ccccc2C(F)(F)F)C(=NCc2ccc(OC)cc2)NC1c1ccc(C(F)(F)F)cc1` (configuration not stated), the AC35 is 9.47 µM.

Regarding `CC1(C)N=C(N)N=C(N)N1c1ccc(CCCCc2ccccc2)cc1`, the AC35 was 3.5 µM. Then `O=c1c2ccccc2nc(/C=C/c2cc(Br)ccc2O)n1CCCO`, with 14.4 µM; and `O=C(C[C@@H]1C[C@H]2c3cc(NS(=O)(=O)c4ccc(F)cc4)ccc3O[C@H]2[C@H](CO)O1)NCc1ccc(-c2ccccc2)cc1`, with 18.7 µM; and `C[C@H]1CN([C@@H](C)CO)C(=O)c2cc(NS(=O)(=O)c3ccc(Cl)cc3)ccc2O[C@H]1CN(C)Cc1ccc(Cl)c(Cl)c1`, with 16.5 µM. Turning to `O=c1ccc2[n+]([O-])c3ccc(O)cc3oc-2c1`, the AC35 was 4.57 µM. In the case of `O=C1NC(=O)N(Cc2ccc(F)cc2)C(=O)/C1=C\C=C\c1ccco1`, the AC35 is 13.3 µM. Take `COc1ccc(OC)c(Cc2cnc3nc(N)nc(N)c3c2C)c1`: the AC35 is 0.151 µM.

`C=CCOC(=O)c1sc(NC(=O)c2ccc(OC)cc2)nc1C`: the AC35 is 0.901 µM. Then `O=C(Nc1ccc(Br)cc1)c1ccc(F)c(S(=O)(=O)N2CCN(c3ccccn3)CC2)c1`, with 8.36 µM. As for `C(=N\Nc1nc2ccccc2[nH]1)/c1ccccn1`, the AC35 is 6.22 µM. For `COC1C(O)C(C)OC(OC2C(Oc3cccc4c(O)c5c(=O)oc6ccc(C)c7c(=O)oc(c34)c5c67)OC(C)C(O)C2O)C1O` (configuration not stated), the AC35 is 15.1 µM. Turning to `N#C[C@@H]1[C@H](c2ccc(C#Cc3ccccc3F)cc2)[C@@H](CO)N1C(=O)c1cccnc1`, the AC35 is 25.4 µM. On to `O=c1c(Cl)cc(Cl)nn1-c1ccccc1`, for which the AC35 was 19.2 µM. With `COc1ccc(OC)c(-c2nnc3n2N=C(c2ccc(OC)c(OC4CCCC4)c2)CS3)c1`, the AC35 was 11.6 µM. For `C[C@H](CO)N1C[C@H](C)[C@H](CN(C)Cc2ccc(Oc3ccccc3)cc2)Oc2ccc(NC(=O)Cn3cnnn3)cc2CC1=O`, the AC35 is 15.5 µM.
